{"source": "patent US10280158B2", "about": "“Immune adjustment compound, use thereof and pharmaceutical composition comprising same” (SUZHOU CONNECT BIOPHARMACEUTICALS, LTD., priority 2013, dated 2019)", "key": {"[1]": {"test_system": "heart rate and QT interval", "assay": "Telemetry assay of cardiovascular function in conscious beagle dog", "format": "in vivo", "details": "within 24 hours after administration", "experimental": "To determine whether Compound 2 has an effect on heart rate and QT interval, the compound was evaluated in a telemetry assay in conscious beagle dog.\nAn appropriate amount of CMC-Na was prepared as a 0.5% CMC-Na (w/v) solution with sterilized water for injection. The solution was prepared one day before administration.\nSolutions of Compound 2 (samples) with the concentration of 2, 6 and 20 mg/mL were prepared one day before administration as follows. An appropriate amount of Compound 2 was added into an appropriate amount of 0.5% CMC-Na solution. The obtained mixture was emulsified and homogenized on an emulsification isotropic machine. Theoretical concentrations of Compound 2 in the prepared sample solutions were 2, 6 and 20 mg/mL.\nA total of 8 animals and a Double Latin squared experimental design were used in this experiment. Administration cycles were separated by 3-5 days. One day before each administration cycle, the animals were weighted and fasted overnight. On the day of administration, telemetry system (Implantable physiological signal telemetry system 1, Data Science International Inc., USA) was turned on, test parameters were set, implants were activated and physiological indexes of the animals were recorded. […] Parameters would be analyzed using artificial set after the collection was completed. The data was, firstly, analyzed by PONEMAH Version 4.8 software automatically, and then checked point by point artificially for selected values. […] Time at which values were selected were recorded.\nStatistical software SPSS13.0 was used to process data in this experiment. […] Indexes of blood pressure, electrocardiogram, respiration and body temperature were expressed as “mean±standard error”, and then analyzed according to following procedure: firstly, homogeneity test was performed on the data by use of Levene Test, and if the data was uniform ([…]), single-factor variance analysis was performed; and if the result of variance analysis was significant (P≤0.05), Dunnett's multiple comparison was performed on difference between vehicle group and sample group. […]"}, "human S1P3": {"target": "human S1P3 (Homo sapiens, UniProt Q99500)", "sequence (Q99500 whole entry)": "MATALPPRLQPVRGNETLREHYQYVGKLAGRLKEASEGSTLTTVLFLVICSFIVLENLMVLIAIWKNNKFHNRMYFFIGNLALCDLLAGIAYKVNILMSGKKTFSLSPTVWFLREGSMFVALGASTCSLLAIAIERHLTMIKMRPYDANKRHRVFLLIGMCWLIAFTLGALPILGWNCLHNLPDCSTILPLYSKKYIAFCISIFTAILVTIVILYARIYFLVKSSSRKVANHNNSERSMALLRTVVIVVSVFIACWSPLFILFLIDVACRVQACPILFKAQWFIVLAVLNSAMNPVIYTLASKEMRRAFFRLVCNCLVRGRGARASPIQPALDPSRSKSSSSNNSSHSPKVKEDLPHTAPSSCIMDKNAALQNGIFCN", "assay": "Internalization effect experiment of S1P3 (CHO-S cells)", "format": "cell-based", "experimental": "CHO—S cells bearing human S1P1 with Myc tag were harvested and then adjusted to a density of one million cells per mL by Dulbecco's modified Eagle's medium (DMEM). […] After incubation, the mixture was centrifuged at 800 RPM for 5 minutes to obtain the cells. The cells were resuspended in FACS buffer (PBS containing 1% BSA), and Myc antibody labelled with fluorescein isothiocyanate (FITC) (from Californian Miltenyi Biotec GmbH, USA) was added in and incubated for 1 hour on ice. The cells were washed, resuspended in pre-cooled FACS buffer and analysed by FACS Calibur flow cytometry.\nCHO—S cells expressing human S1P3 were used to perform internalization detection test. Besides cells, experimental method was the same with the method of the internalized detection experiment of S1P1."}, "[2]": {"test_system": "experimental autoimmune encephalomyelitis (EAE)", "assay": "Experimental autoimmune encephalomyelitis (EAE) model", "format": "in vivo", "details": "oral, 0.03, 0.1 and 1 mg/kg, Day 0 to Day 30, C57BL/6 mice", "description": "Eighty female C57BL/6 mice were randomly assigned into eight groups based on body weight and immunized in this study. Each group consisted of ten (10) mice. To induce the disease, MOG 35-55 (MOG, myelin oligo-dendrocyte glycoprotein) was dissolved in saline to a concentration of 2 mg/mL, and was emulsified in modified complete Freund's Adjuvant (CFA). Mice were anesthetized with isoflurane and were then injected with 100 μL of emulsion subcutaneously into the shaved backs of the mice at three sites, one along the midline of the back between the shoulders, and two on each side of the midline on the lower back. Pertuxus toxin (200 ng in 200 μL of PBS) was administered i.p. on the day of immunization and 48 hours after for all groups. EAE development was assessed by clinically scoring of the mice once daily from Day 0 to Day 30 post immunization."}, "[3]": {"test_system": "lymphocytes in the peripheral blood", "assay": "Effect on the number of lymphocytes in the peripheral blood", "format": "in vivo, Sprague-Dawley (SD) rats", "details": "oral, SD rats", "from_the_text": "S1P1, which is expressed on the surface of lymphocytes, is essential for lymphocytes to leave the secondary lymphoid tissue and then enter into the peripheral circulation. Small molecule agonists of S1P1 can activate the receptor and result in an internalization effect on the receptor. This mechanism is a currently known mechanism by which lymphocytes are prevented from leaving the secondary lymphoid tissue, then resulting in an decreased number of lymphocytes in the peripheral circulation. In order to determine whether the compounds provided by present invention can reduce the number of lymphocytes in the peripheral blood, an in vivo effect experiment on lymphocytes is performed.\nAn appropriate amount of compound 2 was prepared as a suspension with sodium carboxymethylcellulose (CMC-Na) and was given orally to three Sprague-Dawley (SD) rats. Blood samples (0.5 ml) were collected at 30 min before the administration and at different time points after the administration (the collected blood samples were placed in EP tubes containing an appropriate amount of EDTA-2K solution), and analyzed on ADVIA2120 blood cell analyzer directly."}, "[4]": {"test_system": "Collagen Type II-Induced Arthritis", "assay": "Collagen type II-induced arthritis (rat CIA model)", "format": "in vivo, Lewis rats", "details": "oral, 1 mg/kg", "description": "To perform the testing, Lewis rats were induced to develop the disease as follows. Rats were anesthetized with isoflurane and were injected intradermally with a total of 0.5 mL CII/CFA emulsion. The emulsion was injected at 3 sites, one site at the base of the tail (0.1 mL), and the other two sites (0.2 mL/site) on the back of the rat near to the base of the tail. An identical booster injection was given i.d. at 7 days after the primary immunization avoiding previous injection sites.\nThe positive control group was given TOFACITINIB orally on day 12 after sensitization. The severity of arthritis in four paws was scored 2 times per week starting on day 7 after sensitization. The criteria was as follows: score 0: No evidence of erythema and swelling; score 1: Erythema and mild swelling confined to the mid-foot (tarsals) or ankle joint; score 2: Erythema and mild swelling extending from the ankle to the mid-foot; score 3: Erythema and moderate swelling extending from the ankle to the metatarsal joints; score 4: Erythema and severe swelling encompass the ankle, foot, and digits. Joint swelling, measured by the volume of hind paws using Plethysmometer, was determined on Day 0, and then 2 times per week from Day 7 to Day 28. Destruction of the joint was determined by X-Ray examination on Day 28."}}, "data": [{"smiles": "CC(C)Cc1ccc(-c2nc(-c3ccc(CN4CC(C(=O)O)C4)c(F)c3)no2)cc1", "note": "[Compound 2, 1-{2-fluoro-4-[5-(4-isobutylphenyl)-1,2,4-oxadiazol-3-yl]-benzyl}-3-azetidine carboxylic acid]", "values": [{"measurement": "QT interval versus vehicle", "setting": "[1]", "result": "no significant difference"}, {"measurement": "QTcF interval versus vehicle", "setting": "[1]", "result": "no significant difference"}, {"measurement": "heart rate versus vehicle", "setting": "[1]", "result": "no significant difference"}, {"measurement": "internalization activation effect on S1P3 subtype", "setting": "human S1P3; CHO-S cells expressing human S1P3, in words", "result": "no internalization activation effect on S1P3 subtype"}, {"measurement": "EC50", "setting": "human S1P3; CHO-S cells expressing human S1P3, read-out: Receptor Internalization (EC50) S1P3", "result": "> 1", "unit": "µM"}, {"measurement": "development of EAE (clinical score)", "setting": "[2]", "result": "effectively inhibited development of EAE"}, {"measurement": "number of peripheral mononuclear cells and other leukocytes", "setting": "[3]; in words", "result": "unobviously"}, {"measurement": "reduction of lymphocytes in the peripheral blood", "setting": "[3]; dose of 0.01 mg/kg", "result": "more than 50%"}, {"measurement": "reduction of lymphocytes in the peripheral blood", "setting": "[3]; dose of 1 mg/kg, in words", "result": "the most reduction"}, {"measurement": "number of lymphocytes in the peripheral blood", "setting": "[3]; three doses, 30 to 480 minutes after administration, in words", "result": "reduced the number of lymphocytes in the peripheral blood effectively"}, {"measurement": "development of arthritis based on joint swelling", "setting": "[4]; Lewis rats, FIG. 5", "result": "effective in inhibiting the development of arthritis"}, {"measurement": "development of arthritis based on destruction of joint structure", "setting": "[4]; X-Ray on Day 28, Lewis rats, FIG. 6", "result": "effective in inhibiting the development of arthritis"}]}]}
